Test results: patent publication US20070105928A1, “6-Pentafluorophenyl-triazolopyrimidines, method for their production and their use for combating pathogenic fungi, in addition to agents containing said substances” (priority 2003, published 2007)

How the values were obtained:
Pyrenophora teres = test: Activity against net blotch of barley caused by Pyrenophora teres, protective application; assay type: in vivo, Pyrenophora [syn. Drechslera] teres; conditions: 250 ppm, barley seedlings cultivar Hanna, protective spray, assessed after 6 days; untreated plants 90% infected
Protocol: The active compounds were prepared as a stock solution with 0.25% by weight of active compound in acetone or DMSO. 1% by weight of the emulsifier Uniperol® EL (wetting agent having emulsifying and dispersing action based on ethoxylated alkylphenols) was added to this solution, and the mixture was diluted with water to the desired concentration. Leaves of pot-grown barley seedlings of the cultivar “Hanna” were sprayed to run off point with an aqueous suspension having the concentration of active compound stated below. 24 hours after the spray coating had dried on, the test plants were inoculated with an aqueous suspension of Pyrenophora [syn. Drechslera] teres, the causative agent of net blotch. The test plants were subsequently placed in a greenhouse at 20-24° C. and 95-100% relative atmospheric humidity. After 6 days, the extent of development of the disease was determined visually in percent infection of the total leaf area.

Botrytis cinerea = test: Activity against gray mold on bell pepper leaves caused by Botrytis cinerea, protective application; assay type: in vivo; conditions: 63 ppm, bell pepper seedlings cultivar Neusiedler Ideal Elite, protective spray, assessed after 5 days; untreated plants 90% infected
Protocol: The active compounds were prepared as a stock solution with 0.25% by weight of active compound in acetone or DMSO. 1% by weight of the emulsifier Uniperol® EL (wetting agent having emulsifying and dispersing action based on ethoxylated alkylphenols) was added to this solution, and the mixture was diluted with water to the desired concentration. Bell pepper seedlings of the cultivar “Neusiedler Ideal Elite” were, after 2 to 3 leaves were well developed, sprayed to runoff point with an aqueous suspension having the concentration of active compound stated below. The next day, the treated plants were inoculated with a spore suspension of Botrytis cinerea which contained 1.7×10^6 spores/ml in a 2% strength aqueous biomalt solution. The test plants were then placed in a dark climatized chamber at 22-24° C. and high atmospheric humidity. After 5 days, the extent of the fungal infection on the leaves could be determined visually in %.

## Cc1nc2ncnn2c(N2CCC(C)CC2)c1-c1c(F)c(F)c(F)c(F)c1F [Compound I-3, 5-methyl-6-(pentafluorophenyl)-7-(4-methylpiperidinyl)-1,2,4-triazolo[1,5a]pyrimidine]
Pyrenophora teres
  infection of the total leaf area: 5%
Botrytis cinerea
  fungal infection on the leaves: no infection
